Source: patent US10407447B2, “Pantothenate derivatives for the treatment of neurological disorders” (Retrophin, Inc., priority 2013, dated 2019)

Tests used:
Pank1−/− mice = assay: In vivo testing: liver Coenzyme A levels in Pank1−/− mice; set-up: species or system mouse; details: liver CoA in treated Pank1−/− mice as percentage of untreated Pank1−/− mice; intraperitoneal 1.2 μmoles/g body weight once daily for 5 days, fasted overnight
Procedure: Compounds of the invention were tested for efficacy in Pank1^−/− mice (strain 129SvJ×C57BL/6J background), which were compared with age-matched Pank1^+/+ (strain 129SvJ×C57BL/6J) littermates, ages 8-12 weeks. Each mouse was identified with a coded ear tag and weighed on the first day of testing. Each compound was administered to 4-5 mice by intraperitoneal injection at a dose of 1.2 μmoles/g body weight in 5 μL dimethylsulfoxide once daily for 5 days, and mice were then fasted overnight, weighed, and euthanized. Untreated mice received 5 μL dimethylsulfoxide once daily for 5 days and then were fasted overnight prior to weighing and euthanasia. Livers were excised from each mouse, aliquots were snap-frozen in liquid nitrogen, and stored at −80° C. Within 7 days, liver samples were thawed on ice, weighed, and analyzed for Coenzyme A content as described below. Efficacy was indicated by a statistically significant increase in the liver Coenzyme A levels in the Pank1^−/− mice as compared to the liver from untreated Pank1^−/− mice and by equivalence in comparison with Coenzyme A levels in untreated Pank1^+/+ mice.
CoA Measurements: Extraction of Fibroblasts and Liver and Derivatization of Coenzyme A Prior to High Pressure Liquid Chromatography (HPLC) […]
Coenzyme A Quantification by HPLC […]

[1] = tested on: PANK2 silenced cells (IMR32 Human Neuroblastoma Cells); assay: Neuroblastoma cell assay: CoASH by LC-MS/MS in PANK2 silenced cells; format: cell-based; details: 50 μM, treatment repeated after 24 hours, further 24 hours; free CoASH by LC-MS/MS
Procedure: The compounds described herein may be tested in PANK2 silenced cells (IMR32 Human Neuroblastoma Cells). The amount of CoASH following administration of the compounds is measured by LC-MS/MS.
Human neuroblastoma IMR32 cells (ATCC) were cultured in MEM (Invitrogen) supplemented with 10% fetal bovine serum, 2 mM glutamine, 1% penicillin-streptomycin, 1 mM sodium pyruvate, 1 mM non essential aminoacids and 1.5 g/l sodium bicarbonate.
Human Emryonic Kidney HEK-293T cells (ATCC) were cultured in DMEM supplemented with 10% fetal bovine serum, 1 mM glutamine, 1% penicillin-streptomycin.
The cells were maintained at 37° C. under 5% CO2.
Establishment of a PANK2−/− Cell Model
For lentiviral shRNA expression, Human Emryonic Kidney HEK-293T cells (ATCC) were transfected with the appropriate pGFP-Lenti-shRNA constructs and packaging plasmids according to manufacturer's protocol (Origene Technologies, Inc.). 4 different gene-specific shRNA expression vectors designed against multiple splice variants of PANK2 (Gene ID 80025) were used for transfection. A non-silencing shRNA construct (scrambled shRNA) and an empty vector expressing GFP alone were used as negative controls. The GFP tag subcloned into the lentiviral vectors was used to monitor the transfection efficiency.
IMR32 cells were plated on […] dishes 48 hrs before transduction with lentiviral particles.
Three days after transduction medium was removed and replaced with fresh medium containing […] puromycin. Medium was replaced every 48 hrs. Levels of PANK2 expression on selected clones was assessed by Western Blot analysis.
Cell-Based Assay on PANK2−/− Cells
Cells were plated on 6-well culture plates. After 72 hours, compounds were diluted in DMSO and added to the culture medium such that the final solvent concentration was 0.1% (v/v). […] Before analysis of Coenzyme A levels, cells were harvested, counted and collected in a 15 ml falcon tube and centrifuged at 200×g for 5 min at 4° C. […]
Results are expressed as fold increase in CoA levels (LCMS quantification of free CoASH as described in above).

Row | SMILES | CoA (% KO) (Pank1−/− mice) | CoA levels (fold over vehicle treated PANK2−/− cells) [1]
1 | COC(=O)[C@H](C)NP(=O)(OCC(C)(C)[C@@H](O)C(=O)NCCC(=O)OCc1ccccc1)Oc1ccccc1 (stereo partly drawn) [Compound 22, Benzyl 3-((2R)-2-hydroxy-4-(((((S)-1-methoxy-1-oxopropan-2-yl)amino)(phenoxy)phosphoryl)oxy)-3,3-dimethylbutanamido)propanoate] | 400 % KO | 1.1 fold
2 | COC(=O)CCNC(=O)[C@H](O)C(C)(C)COP(=O)(N[C@@H](C)C(=O)OCc1ccccc1)Oc1ccccc1 (stereo partly drawn) [Compound 24, Benzyl (((R)-3-hydroxy-4-((3-methoxy-3-oxopropyl)amino)-2,2-dimethyl-4-oxobutoxy)(phenoxy)phosphoryl)-L-alaninate] |  | 1.7 fold
3 | COC(=O)CCNC(=O)[C@H](O)C(C)(C)COP(=O)(N[C@@H](Cc1ccccc1)C(=O)OCc1ccccc1)Oc1ccccc1 (stereo partly drawn) [Compound 27, Benzyl (((R)-3-hydroxy-4-((3-methoxy-3-oxopropyl)amino)-2,2-dimethyl-4-oxobutoxy)(phenoxy)phosphoryl)-L-phenylalaninate] | 1837 % KO | 1.3 fold
